The results in this text go back to ChEMBL document CHEMBL1139234, “Optimization of monocarboxylate transporter 1 blockers through analysis and modulation of atropisomer interconversion properties” (J Med Chem, 2007).

The solubility is how much of the substance goes into solution per volume. Low readings indicate a poorly soluble substance, high ones a readily soluble substance. A word on the logD: it is the decadic logarithm of the distribution of all forms, ionised or not, between an organic phase and buffer at a given pH. A high value points to a more lipophilic compound.

Data set [1] in a line: Solubility of the compound. The data set is classed as physicochemical.
The nature of a further data set: physchem. As to conditions: octanol/water.

Values after ≈ are worked out from the molar mass of the structure shown.

`CC(C)Cn1c(=O)n(C)c(=O)c2c(C(=O)N3CC[C@@H](O)C3)c(Cc3ccnc4ccccc34)sc21` showed a solubility in data set [1] of 500 µg/mL (≈ 1.02 mM).
For the compound `CC(C)Cn1c(=O)n(C)c(=O)c2c(C(=O)N3CC[C@@H](O)C3)c(Cc3ccnc4ccc(F)cc34)sc21`, the logD in the data set “physchem” was 2.
On the same count and under the same terms, the same measure for `CC(C)Cn1c(=O)n(C)c(=O)c2c(C(=O)N3C[C@H](O)CO3)c(Cc3ccccc3C(F)(F)F)sc21`: 3.2.
`CNc1nc2ccccc2n1Cc1sc2c(c1C(=O)N1C[C@H](O)CO1)c(=O)n(C)c(=O)n2CC(C)C` displayed a logD in the data set “physchem” of 1.8.
For the compound `CC(C)Cn1c(=O)n(C)c(=O)c2c(C(=O)N3CC[C@@H](O)C3)c(Oc3cccc4ccccc34)sc21`, in the data set “physchem”, the log distribution coefficient (logD) was found to be 2.9.
On to `Cc1n[nH]c(C)c1Cc1sc2c(c1C(=O)N1C[C@H](O)CO1)c(=O)n(C)c(=O)n2CC(C)C`, for which, in “physchem”, the logD turned out to be 1.1. In data set [1], the solubility was determined as 2900 µg/mL (≈ 6.28 mM).
In turn, `CC(C)Cn1c(=O)n(C)c(=O)c2c(C(=O)N3C[C@H](O)CO3)c(Cc3c[nH]c4ncccc34)sc21` displayed a logD in “physchem” of 2.
The same measure, in the same setting: to `CON(C)C(=O)c1c(Cn2c(C)nc(Cl)c2Cl)sc2c1c(=O)n(C)c(=O)n2CC(C)C` belongs 2.3; to `CC(C)n1c(=O)n(C)c(=O)c2c(C(=O)N3CCS(=O)(=O)C3)c(Cc3ccccc3C(F)(F)F)sc21`, 2.6.
